Measured values published in US20250026733A1, “DEUTERATED ANALOGS OF PYROLE INHIBITORS OF ERK, SYNTHESIS THEREOF AND INTERMEDIATES THERETO” (BIOMED VALLEY DISCOVERIES, INC., priority 2022, published 2025).
Where two headings read alike, the source gives them in different places. Marks after values point to notes of the source that are not given here.

Key:
[1] = test system: phospho-ERK1/2 to total ERK1/2 in A375 cells; experiment: A375 pERK/ERK dose response study (MSD); assay type: cell-based; settings: Homo sapiens, A-375, ratio of phospho-ERK1/2 to total ERK1/2
Experimental: A375 pERK/ERK Dose Response Study:
Briefly, A375 cells were plated at 30,000 cells/well in 2×96 well plates, allowed to recover overnight, washed and fed fresh media the next day then treated with a dose response of the selected compounds. Following the determined pretreatment time with the compounds at 37° C./5% CO2, the media was aspirated, and cells lysed with cold, complete MESO Scale Discovery (MSD) lysis buffer. pERK and total ERK1/2 levels were measured using MESO Scale Discover Phospho(Thr202/Tyr204; Thr185/Tyr187)/Total ERK1/2 kits. The protocol and all reagents were provided in the kit. All wells were blocked with 150 μl Blocking Solution for one hour. […] of lysis buffer was added per well and incubated overnight at 4° C. Following the overnight incubation, the wells were washed three times with Tris Wash buffer, then […] of 1× Detection Antibody was added per well and incubated at room temperature for one hour with vigorous shaking. All wells were then washed three times with Tris Wash Buffer before 150 μl of 1× Read Buffer was added per well and the plates read using the MSD Sector Imager. Data were calculated as a ratio of phospho-ERK1/2 to total ERK1/2 to allow for normalization of the samples.

[2] = Pharmacokinetics and metabolite formation in rats; assay type: in vivo, rat; settings: for AUC(0-t) / half-life: both sexes
Experimental: Ulixertinib, Formulas 18A, 19A, and 21A were dosed twice daily (12 hours apart, ±30 minutes) for five consecutive days (10 doses/animal) to rats via oral gavage (PO). Each compound was administered at a dose of 12.5 mg/kg to 6 rats (3 male/3 female, N=6 rats/compound). Each compound was formulated in 1% (w/v) carboxymethylcellulose (CMC) in water at a concentration of 1.25 mg/mL. Following the second (p.m.) dose on Day 5, blood samples were collected from each rat at approximately 0.5, 1, 2, 4, 6, 8, and 12 hours post-dose. Blood samples were centrifuged to obtain plasma. Plasma samples were analyzed for concentrations of the dosed compounds and selected metabolites using an established LC-MS/MS method. The lower limit of quantitation of each compound was 1.00 ng/mL. The rat half-life values (determined by non-compartmental analysis using WinNonlin software) for each compound are shown in Table 7, and the areas under curve from time 0 to hour 12 (AUC0-12), calculated using the linear trapezoidal rule, for each dosed compound and selected metabolites are presented in Table 8.

[3] = Steady-state exposure of ulixertinib and metabolites in rat; assay type: in vivo
Source text: (§1) The steady state exposure levels of non-isotopically enriched parent ulixertinib and related metabolites in rat (day 5) and human subjects (day 15) is provided in TABLE 1 below: […]

[4] = Steady-state exposure of ulixertinib and metabolites in human subjects; assay type: in vivo
Source text: as §1

Row | IC50 [1] | AUC(0-t) ([2]; rat, in vivo, po, 12.5 mg/kg) | half-life ([2]; rat, in vivo, po, 12.5 mg/kg) | AUC0-12 M2, percent change relative to Ulixertinib ([2]; both, rat, in vivo) | AUC0-12 M3, percent change relative to Ulixertinib ([2]; both, rat, in vivo) | AUC0-12 M6, percent change relative to Ulixertinib ([2]; both, rat, in vivo) | AUC0-12 Parent, percent change relative to Ulixertinib ([2]; both, rat, in vivo) | Half-life, percent change relative to Ulixertinib ([2]; both, rat, in vivo) | longer mean half-life than ulixertinib ([2]; both, rat, in vivo) | % of total Ulixertinib related exposure ([3]; day 5, steady state) | AUC at 5 day ([3]; in vivo, day 5, non-isotopically enriched ulixertinib and related metabolites, read-out: Steady-State AUC (Mean ± SD)) | % of total Ulixertinib related exposure ([4]; day 15, steady state) | AUC at 15 day ([4]; in vivo, day 15, non-isotopically enriched ulixertinib and related metabolites, read-out: Steady-State AUC (Mean ± SD)) | AUC(0-t) ([2]; rat plasma, 12.5 mg/kg PO twice daily for five days, after second dose on Day 5, N=6, read-out: AUC0-12, Parent, Mean) | half-life ([2]; rat plasma, 12.5 mg/kg PO twice daily for five days, after second dose on Day 5, N=6, read-out: Half-life, t1/2, Mean (converted)) | SMILES
1 | 70 nM |  |  |  |  |  |  |  |  |  |  |  |  |  |  | [2H]C([2H])([2H])C([2H])(Nc1cc(-c2c[nH]c(C(=O)N[C@H](CO)c3cccc(Cl)c3)c2)c(Cl)cn1)C([2H])([2H])[2H] [Formula 18, 4-(5-chloro-2-((propan-2-yl-d7)amino)pyridin-4-yl)-N-(1-(3-chlorophenyl)-2-hydroxyethyl)-1H-pyrrole-2-carboxamide]
2 |  | 193 µg·h/mL | 3.81 h | (−17%^a) | (+8%^a) | (+7%^a) | (+12%^a) | (+4%^a) | 4% |  |  |  |  |  |  | Cl.[2H]C(C)(C)Nc1cc(-c2c[nH]c(C(=O)N[C@H](CO)c3cccc(Cl)c3)c2)c(Cl)cn1 [Formula 21A]
3 | 58 nM |  |  |  |  |  |  |  |  | 91.1% | 179 ± 49 µg·h/mL | 37.5% | 29.6 ± 16.1 µg·h/mL | 173 µg·h/mL | 3.67 h | CC(C)Nc1cc(-c2c[nH]c(C(=O)N[C@H](CO)c3cccc(Cl)c3)c2)c(Cl)cn1 [Ulixertinib, reference compound]
